Assay [1] addresses T1, second (BD2: amino acids E352-E168) bromodomain of BRD4 (Homo sapiens, UniProt O60885).
T1 construct: protocol
Nature of the assay: TR-FRET bromodomain binding assay, BRD4 BD2. The note with it: Ki calculated from IC50, probe Kd and probe concentration, read-out: TR-FRET Binding Ki: BRD4 (BDII_E352-M457). In a few lines:
(§1)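 His-tagged BRD4 bromodomain competed against an Alexa647-labeled BET-inhibitor probe by TR-FRET in 20 mM sodium phosphate pH 6.0, 50 mM NaCl, 1 mM EDTA, 0.01% Triton X-100, 1 mM DTT.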

The target in assay [2] is T2, first (BD1: amino acids K57-E168) bromodomain of BRD4 (Homo sapiens, UniProt O60885).
T2 construct: His-tagged first (BD1: amino acids K57-E168)
Nature of the assay: TR-FRET bromodomain binding assay, BRD4 BD1. Conditions: Ki calculated from IC50, probe Kd and probe concentration, read-out: TR-FRET Binding Ki: BRD4 (BDI_K57-E168). In a few lines:
as §1

Setting [3] is: TR-FRET assay protocol (A-G, compound concentration range).
Setting [4] is: TR-FRET assay protocol (D, E or G) per compound.

SMILES strings stand for the structures. Read-outs that look alike come from different tables or passages of the source.

Take `CCN(CC)C(=O)c1cccc(-c2cc(=O)n(C)nc2-c2ccccc2Oc2ccccc2)c1` [Example 160, N,N-diethyl-3-[1-methyl-6-oxo-3-(2-phenoxyphenyl)-1,6-dihydropyridazin-4-yl]benzamide]: the inhibitory constant (Ki) in assay [1] (setting [3]) is 10200 nM; in assay [2] (setting [3]), 8540 nM.

With `Cc1cccc(OCC2CC2)c1-c1ccc(=O)n(C)c1` [Example 356, 5-[2-(cyclopropylmethoxy)-6-methylphenyl]-1-methylpyridin-2(1H)-one], the Ki in assay [1] (setting [3]) was 752 nM; in assay [2] (setting [3]), 1390 nM.

For the molecule `Cn1nc(-c2ccccc2Oc2ccccc2)c(-c2ccnc(N3CCOCC3)c2)cc1=O` [Example 153, 2-methyl-5-[2-(morpholin-4-yl)pyridin-4-yl]-6-(2-phenoxyphenyl)pyridazin-3(2H)-one], the figures for the inhibition constant Ki in assay [1] (setting [3]) and in assay [2] (setting [3]) were 3090 nM and 5960 nM, respectively.

In the case of `Cn1nc(-c2ccccc2Oc2ccccc2)c(-c2cncc(C(=O)NC3CC3)c2)cc1=O` [Example 144, N-cyclopropyl-5-[1-methyl-6-oxo-3-(2-phenoxyphenyl)-1,6-dihydropyridazin-4-yl]pyridine-3-carboxamide], the inhibition constant (Ki) in assay [1] (setting [3]) was over 3370 nM; in assay [2] (setting [3]), over 2380 nM.

As for `COC(=O)c1ccccc1-c1cc(=O)n(C)nc1-c1ccccc1Oc1ccccc1` [Example 126, methyl 2-[1-methyl-6-oxo-3-(2-phenoxyphenyl)-1,6-dihydropyridazin-4-yl]benzoate], the values for the inhibitory constant (Ki) in assay [1] (setting [3]) and in assay [2] (setting [3]) were over 22200 nM and 9340 nM, respectively.

For `CN(C)C(=O)c1cc(-c2cc(=O)n(C)nc2-c2ccccc2Oc2ccccc2)ccc1F` [Example 155, 2-fluoro-N,N-dimethyl-5-[1-methyl-6-oxo-3-(2-phenoxyphenyl)-1,6-dihydropyridazin-4-yl]benzamide], the Ki in assay [1] (setting [3]) was 6900 nM; in assay [2] (setting [3]) it was 5520 nM.

With `Cc1ccc(-c2cc(=O)n(C)nc2-c2ccccc2Oc2ccccc2)o1` [Example 211, 2-methyl-5-(5-methylfuran-2-yl)-6-(2-phenoxyphenyl)pyridazin-3(2H)-one], the figures for the Ki in assay [1] (setting [3]) and in assay [2] (setting [3]) were 1520 nM and 2150 nM, respectively.

For `Cn1nc(-c2ccccc2Oc2ccccc2)c(-c2cccc(NS(C)(=O)=O)c2)cc1=O` [Example 120, N-{3-[1-methyl-6-oxo-3-(2-phenoxyphenyl)-1,6-dihydropyridazin-4-yl]phenyl}methanesulfonamide], the Ki was 1190 nM in assay [1] (setting [3]) and 611 nM in assay [2] (setting [3]).

Regarding `Cn1nc(-c2ccccc2Oc2ccccc2)c(C2CCN(S(C)(=O)=O)CC2)cc1=O` [Example 90, 2-methyl-5-[1-(methylsulfonyl)piperidin-4-yl]-6-(2-phenoxyphenyl)pyridazin-3(2H)-one], the inhibition constant Ki was 2330 nM in assay [1] (setting [3]) and 4550 nM in assay [2] (setting [3]).

On to `CCS(=O)(=O)c1ccc(O[C@H]2CC[C@@](C)(OC)CC2)c(-c2ccc(=O)n(C)c2)c1` [Example 360, 5-{5-(ethylsulfonyl)-2-[(cis-4-methoxy-4-methylcyclohexyl)oxy]phenyl}-1-methylpyridin-2(1H)-one], for which the Ki was 700 nM in assay [1] (setting [3]) and 127 nM in assay [2] (setting [3]).

With `CC(C)CNC(=O)c1ccc(-c2cc(=O)n(C)nc2-c2ccccc2Oc2ccccc2)cc1` [Example 170, 4-[1-methyl-6-oxo-3-(2-phenoxyphenyl)-1,6-dihydropyridazin-4-yl]-N-(2-methylpropyl)benzamide], the Ki is 1620 nM in assay [1] (setting [3]) and 1670 nM in assay [2] (setting [3]).

With `CCOc1cc(=O)n(C)cc1-c1cc(NC(=O)c2ccc(-c3ccccc3)cc2)ccc1Oc1ccc(F)cc1F` [Example 304, N-[4-(2,4-difluorophenoxy)-3-(4-ethoxy-1-methyl-6-oxo-1,6-dihydropyridin-3-yl)phenyl]biphenyl-4-carboxamide], the figures for the inhibitory constant (Ki) in assay [1] (setting [3]) and in assay [2] (setting [3]) were 359 nM and 195 nM, respectively.

Turning to `CCOc1cc(=O)n(C)cc1-c1cc(NS(=O)(=O)CC)ccc1OC1CCN(C(C)=O)CC1` [Example 389, N-{4-[(1-acetylpiperidin-4-yl)oxy]-3-(4-ethoxy-1-methyl-6-oxo-1,6-dihydropyridin-3-yl)phenyl}ethanesulfonamide], the Ki in assay [1] (setting [4]) is 3990 nM; in assay [2] (setting [4]), 1260 nM.

`CCOc1ccc(-c2cc(=O)n(C)nc2-c2ccccc2Oc2ccccc2)cc1F` [Example 107, 5-(4-ethoxy-3-fluorophenyl)-2-methyl-6-(2-phenoxyphenyl)pyridazin-3(2H)-one]: the Ki is 2580 nM in assay [1] (setting [3]) and 1760 nM in assay [2] (setting [3]).

As for `Cn1nc(-c2ccccc2Oc2ccccc2)c(C2CCNCC2)cc1=O` [Example 87, 2-methyl-6-(2-phenoxyphenyl)-5-(piperidin-4-yl)pyridazin-3(2H)-one], the Ki was 3090 nM in assay [1] (setting [3]) and 2010 nM in assay [2] (setting [3]).

As to `CCS(=O)(=O)c1ccc(Oc2ccc(F)cc2F)c(-c2cn(C)c(=O)cc2Oc2ccc(F)cc2F)c1` [Example 317, 4-(2,4-difluorophenoxy)-5-[2-(2,4-difluorophenoxy)-5-(ethylsulfonyl)phenyl]-1-methylpyridin-2(1H)-one], the inhibition constant Ki is 182 nM in assay [1] (setting [3]) and 377 nM in assay [2] (setting [3]).

Take `CCOc1cc(=O)n(C)cc1-c1cc(NCCC(C)(C)C)ccc1Oc1ccc(F)cc1F` [Example 306, 5-{2-(2,4-difluorophenoxy)-5-[(3,3-dimethylbutyl)amino]phenyl}-4-ethoxy-1-methylpyridin-2(1H)-one]: the inhibition constant Ki in assay [1] (setting [3]) was 349 nM; in assay [2] (setting [3]), 542 nM.

As for `COc1cc(=O)n(C)nc1-c1ccccc1OCc1ccc2[nH]ncc2c1` [Example 41, 6-[2-(1H-indazol-5-ylmethoxy)phenyl]-5-methoxy-2-methylpyridazin-3(2H)-one], the Ki in assay [1] (setting [3]) is over 20300 nM; in assay [2] (setting [3]) it was over 12900 nM.

For `CCS(=O)(=O)Nc1ccc(OCC2CC2)c(-c2ccc(=O)n(C)c2)c1C` [Example 365, N-[4-(cyclopropylmethoxy)-2-methyl-3-(1-methyl-6-oxo-1,6-dihydropyridin-3-yl)phenyl]ethanesulfonamide], the Ki in assay [1] (setting [3]) is over 4440 nM; in assay [2] (setting [3]), 1350 nM.

In the case of `Cn1nc(-c2ccccc2Oc2ccccc2)c(-c2cccnc2)cc1=O` [Example 195, 2-methyl-6-(2-phenoxyphenyl)-5-(pyridin-3-yl)pyridazin-3(2H)-one], the Ki was 317 nM in assay [1] (setting [3]) and 664 nM in assay [2] (setting [3]).

`COc1cc(=O)n(C)nc1-c1ccccc1OCC1CCNCC1` [Example 44, 5-methoxy-2-methyl-6-[2-(piperidin-4-ylmethoxy)phenyl]pyridazin-3(2H)-one]: the inhibition constant (Ki) was 5110 nM in assay [1] (setting [3]) and 2710 nM in assay [2] (setting [3]).

Turning to `CC(=O)Nc1cccc(-c2cc(=O)n(C)nc2-c2ccccc2Oc2ccccc2)c1` [Example 106, N-{3-[1-methyl-6-oxo-3-(2-phenoxyphenyl)-1,6-dihydropyridazin-4-yl]phenyl}acetamide], the Ki in assay [1] (setting [3]) is 925 nM; in assay [2] (setting [3]) it was 176 nM.

Consider `Cn1nc(-c2cc(C(=O)O)ccc2Oc2ccccc2)ccc1=O` [Example 15, 3-(1-methyl-6-oxo-1,6-dihydropyridazin-3-yl)-4-phenoxybenzoic acid], for which the Ki in assay [1] (setting [3]) was 16300 nM; in assay [2] (setting [3]) it was 17800 nM.

For the molecule `CCOC(=O)Cc1ccc(-c2cc(=O)n(C)nc2-c2ccccc2Oc2ccccc2)cc1` [Example 97, ethyl{4-[1-methyl-6-oxo-3-(2-phenoxyphenyl)-1,6-dihydropyridazin-4-yl]phenyl}acetate], the inhibition constant Ki in assay [1] (setting [3]) is 176 nM; in assay [2] (setting [3]), 561 nM.

On to `COCCNC(=O)c1ccc(-c2cc(=O)n(C)nc2-c2ccccc2Oc2ccccc2)cc1` [Example 173, N-(2-methoxyethyl)-4-[1-methyl-6-oxo-3-(2-phenoxyphenyl)-1,6-dihydropyridazin-4-yl]benzamide], for which the inhibition constant Ki in assay [1] (setting [3]) was 545 nM; in assay [2] (setting [3]) it was 805 nM.

As to `CC(C)Cc1ccc(-c2cc(=O)n(C)nc2-c2ccccc2Oc2ccccc2)cc1` [Example 96, 2-methyl-5-[4-(2-methylpropyl)phenyl]-6-(2-phenoxyphenyl)pyridazin-3(2H)-one], the results for the Ki in assay [1] (setting [3]) and in assay [2] (setting [3]) were 13400 nM and 8330 nM, respectively.

As to `CCOc1cc(=O)n(C)cc1-c1cc(NS(=O)(=O)c2ccc(OC(F)(F)F)cc2)ccc1Oc1ccc(F)cc1F` [Example 308, N-[4-(2,4-difluorophenoxy)-3-(4-ethoxy-1-methyl-6-oxo-1,6-dihydropyridin-3-yl)phenyl]-4-(trifluoromethoxy)benzenesulfonamide], the results for the Ki in assay [1] (setting [3]) and in assay [2] (setting [3]) were 65.9 nM and 318 nM, respectively.

In the case of `Cn1nc(-c2ccccc2Oc2ccc(C#N)cc2)ccc1=O` [Example 3, 4-[2-(1-methyl-6-oxo-1,6-dihydropyridazin-3-yl)phenoxy]benzonitrile], the results for the inhibition constant Ki in assay [1] (setting [3]) and in assay [2] (setting [3]) were 3430 nM and 851 nM, respectively.

Consider `Cn1nc(-c2ccccc2Oc2ccccc2)c(-c2cc3ccccc3n2C)cc1=O` [Example 214, 2-methyl-5-(1-methyl-1H-indol-2-yl)-6-(2-phenoxyphenyl)pyridazin-3(2H)-one], for which the Ki was 10400 nM in assay [1] (setting [3]) and over 13000 nM in assay [2] (setting [3]).

With `CC(=O)OCc1ccc(-c2cc(=O)n(C)nc2-c2ccccc2Oc2ccccc2)cc1` [Example 80, 4-[1-methyl-6-oxo-3-(2-phenoxyphenyl)-1,6-dihydropyridazin-4-yl]benzyl acetate], the inhibition constant Ki in assay [1] (setting [3]) is 439 nM; in assay [2] (setting [3]) it was 708 nM.

For the molecule `Cn1nc(-c2ccccc2Oc2ccccc2)c(-c2ccc(N3CCCCC3)nc2)cc1=O` [Example 184, 2-methyl-6-(2-phenoxyphenyl)-5-[6-(piperidin-1-yl)pyridin-3-yl]pyridazin-3(2H)-one], the Ki in assay [1] (setting [3]) is 1960 nM; in assay [2] (setting [3]), 2140 nM.

The record behind these values is patent publication US9561231B2 (AbbVie Inc., priority 2012, dated 2017).
